Key:
[1] = Metabolic stability, incubation with human liver cytosol; format: in vitro ADME; details: 1 µM test compound, 1 mg/mL protein
CYP3A4 [2] = target: T1, CYP3A4 (Homo sapiens, UniProt P08684); details: human, microsomes, 10 µM, pH 7.4
[3] = cited from earlier work
CYP3A4 [4] = target: T1, CYP3A4; test: in vitro; details: microsomes, pH 7.4, % Inhibition of Control Activity CYP3A4 (substrate, testosterone)
CYP3A4 [5] = target: T1, CYP3A4; test: in vitro; details: microsomes, pH 7.4
[6] = Metabolic stability, incubation with human liver microsomes; details: 1 µM test compound, 0.5 mg/mL protein
CYP1A2 = target: T2, CYP1A2 (Homo sapiens, UniProt P05177); test: CYP inhibition in human liver microsomes, CYP1A2; details: inhibitor 10 µM; HLM; NI: No Inhibitin; 10 µM
T2 sequence (P05177 1-516): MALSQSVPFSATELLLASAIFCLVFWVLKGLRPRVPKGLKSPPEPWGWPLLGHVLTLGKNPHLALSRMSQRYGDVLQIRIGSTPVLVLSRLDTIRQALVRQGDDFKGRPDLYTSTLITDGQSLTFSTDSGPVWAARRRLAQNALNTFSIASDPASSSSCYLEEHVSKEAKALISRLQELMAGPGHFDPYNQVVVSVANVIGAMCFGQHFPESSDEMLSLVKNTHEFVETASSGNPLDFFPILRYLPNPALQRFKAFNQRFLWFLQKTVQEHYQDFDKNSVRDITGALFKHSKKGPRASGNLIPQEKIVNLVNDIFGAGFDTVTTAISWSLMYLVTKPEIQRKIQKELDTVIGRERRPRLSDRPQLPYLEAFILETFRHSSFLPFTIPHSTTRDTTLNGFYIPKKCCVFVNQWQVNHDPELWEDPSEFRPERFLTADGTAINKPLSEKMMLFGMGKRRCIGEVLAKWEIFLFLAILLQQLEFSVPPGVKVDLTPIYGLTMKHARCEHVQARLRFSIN

CYP2C8 = target: T3, CYP2C8 (Homo sapiens, UniProt P10632); test: CYP inhibition in human liver microsomes, CYP2C8; details: human, human liver microsomes, pH 7.4, probe paclitaxel
T3 sequence (P10632 1-490): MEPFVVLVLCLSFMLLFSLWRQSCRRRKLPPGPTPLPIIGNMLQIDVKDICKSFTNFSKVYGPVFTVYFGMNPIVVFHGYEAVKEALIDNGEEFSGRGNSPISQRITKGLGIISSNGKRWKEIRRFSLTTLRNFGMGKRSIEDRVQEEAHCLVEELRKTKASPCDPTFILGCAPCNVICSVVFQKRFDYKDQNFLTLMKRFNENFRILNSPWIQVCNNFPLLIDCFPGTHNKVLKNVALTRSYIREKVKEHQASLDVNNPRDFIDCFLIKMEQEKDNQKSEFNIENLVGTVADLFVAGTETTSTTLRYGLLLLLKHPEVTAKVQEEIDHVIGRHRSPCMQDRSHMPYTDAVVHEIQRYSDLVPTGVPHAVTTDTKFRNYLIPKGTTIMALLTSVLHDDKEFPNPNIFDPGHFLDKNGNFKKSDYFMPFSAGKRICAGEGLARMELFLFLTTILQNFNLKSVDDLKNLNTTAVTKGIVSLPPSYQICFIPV

CYP2C9 = CYP2C9 (Homo sapiens, UniProt P11712); test: CYP inhibition in human liver microsomes, CYP2C9; details: inhibitor 10 µM; HLM; NI: No Inhibitin; 10 µM
CYP2C9, sequence (P11712 whole entry): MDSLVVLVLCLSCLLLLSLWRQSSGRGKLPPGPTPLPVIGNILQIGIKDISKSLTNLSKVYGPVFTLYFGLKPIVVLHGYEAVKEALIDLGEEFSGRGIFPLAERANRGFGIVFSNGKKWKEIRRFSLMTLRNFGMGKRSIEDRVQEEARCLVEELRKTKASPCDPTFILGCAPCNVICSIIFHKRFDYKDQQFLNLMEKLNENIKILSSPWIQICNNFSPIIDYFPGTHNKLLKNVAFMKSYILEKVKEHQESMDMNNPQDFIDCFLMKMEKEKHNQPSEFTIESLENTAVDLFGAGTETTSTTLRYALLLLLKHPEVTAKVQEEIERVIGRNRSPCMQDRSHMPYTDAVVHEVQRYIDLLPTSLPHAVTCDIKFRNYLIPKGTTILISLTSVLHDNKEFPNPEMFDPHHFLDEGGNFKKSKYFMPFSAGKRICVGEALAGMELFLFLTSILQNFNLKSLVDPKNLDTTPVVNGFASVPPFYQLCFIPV

CYP2C19 = CYP2C19 (Homo sapiens, UniProt P33261); test: CYP inhibition in human liver microsomes, CYP2C19; details: inhibitor 10 µM; HLM; NI: No Inhibitin; 10 µM
CYP2C19, sequence (P33261 whole entry): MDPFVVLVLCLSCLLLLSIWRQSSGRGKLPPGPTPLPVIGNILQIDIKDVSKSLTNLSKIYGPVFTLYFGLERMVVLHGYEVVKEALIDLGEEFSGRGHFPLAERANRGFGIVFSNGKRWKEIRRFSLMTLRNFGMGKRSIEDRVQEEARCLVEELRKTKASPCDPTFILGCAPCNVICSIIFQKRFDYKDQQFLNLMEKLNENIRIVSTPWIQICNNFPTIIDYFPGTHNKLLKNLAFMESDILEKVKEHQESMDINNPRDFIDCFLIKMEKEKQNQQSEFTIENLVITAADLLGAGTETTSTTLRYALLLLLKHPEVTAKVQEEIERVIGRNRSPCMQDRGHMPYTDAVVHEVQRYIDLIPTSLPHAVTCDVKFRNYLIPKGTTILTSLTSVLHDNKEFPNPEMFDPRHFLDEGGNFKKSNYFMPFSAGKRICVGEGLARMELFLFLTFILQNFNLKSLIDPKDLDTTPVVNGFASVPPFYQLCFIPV

rCYP1A2 = target: T4, rCYP1A2 (Homo sapiens, UniProt P05177); test: Metabolic stability / reaction phenotyping with recombinant human CYP1A2
T4 sequence (P05177 1-516): T2 sequence (P05177 1-516)

rCYP2C8 = target: T5, rCYP2C8 (Homo sapiens, UniProt P10632); test: Metabolic stability / reaction phenotyping with recombinant human CYP2C8
T5 sequence (P10632 1-490): T3 sequence (P10632 1-490)

rCYP2C9 = rCYP2C9 (Homo sapiens, UniProt P11712); test: Metabolic stability / reaction phenotyping with recombinant human CYP2C9
rCYP2C9, sequence (P11712 whole entry): as the sequence (P11712 whole entry) above

rCYP2D6 = rCYP2D6 (Homo sapiens, UniProt P10635); test: Metabolic stability / reaction phenotyping with recombinant human CYP2D6
rCYP2D6, sequence (P10635 whole entry): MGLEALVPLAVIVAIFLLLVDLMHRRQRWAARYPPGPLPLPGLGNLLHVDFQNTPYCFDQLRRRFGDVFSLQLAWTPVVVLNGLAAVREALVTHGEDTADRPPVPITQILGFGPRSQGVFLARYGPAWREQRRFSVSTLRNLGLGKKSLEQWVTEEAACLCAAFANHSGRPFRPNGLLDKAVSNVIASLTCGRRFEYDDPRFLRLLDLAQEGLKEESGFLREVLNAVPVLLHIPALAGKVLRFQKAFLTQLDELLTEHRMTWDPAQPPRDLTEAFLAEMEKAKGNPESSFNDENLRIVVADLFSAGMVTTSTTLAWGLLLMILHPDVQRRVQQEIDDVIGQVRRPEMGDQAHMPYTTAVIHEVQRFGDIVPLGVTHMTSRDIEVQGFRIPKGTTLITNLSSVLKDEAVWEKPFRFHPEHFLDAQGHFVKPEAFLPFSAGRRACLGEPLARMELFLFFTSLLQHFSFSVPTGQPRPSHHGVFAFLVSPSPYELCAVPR

rCYP2C19 = rCYP2C19 (Homo sapiens, UniProt P33261); test: Metabolic stability / reaction phenotyping with recombinant human CYP2C19
rCYP2C19, sequence (P33261 whole entry): as the sequence (P33261 whole entry) above

[7] = 1 µM test compound, 100 pmol/mL, 30 min
[8] = human, recombinant human CYP1A2, 1 µM, pH 7.4
[9] = human, recombinant human CYP2C8, 1 µM, pH 7.4
[10] = human, recombinant human CYP2C9, 1 µM, pH 7.4
[11] = human, recombinant human CYP2D6, 1 µM, pH 7.4
[12] = human, recombinant human CYP2C19, 1 µM, pH 7.4

T1 sequence (P08684 2-503): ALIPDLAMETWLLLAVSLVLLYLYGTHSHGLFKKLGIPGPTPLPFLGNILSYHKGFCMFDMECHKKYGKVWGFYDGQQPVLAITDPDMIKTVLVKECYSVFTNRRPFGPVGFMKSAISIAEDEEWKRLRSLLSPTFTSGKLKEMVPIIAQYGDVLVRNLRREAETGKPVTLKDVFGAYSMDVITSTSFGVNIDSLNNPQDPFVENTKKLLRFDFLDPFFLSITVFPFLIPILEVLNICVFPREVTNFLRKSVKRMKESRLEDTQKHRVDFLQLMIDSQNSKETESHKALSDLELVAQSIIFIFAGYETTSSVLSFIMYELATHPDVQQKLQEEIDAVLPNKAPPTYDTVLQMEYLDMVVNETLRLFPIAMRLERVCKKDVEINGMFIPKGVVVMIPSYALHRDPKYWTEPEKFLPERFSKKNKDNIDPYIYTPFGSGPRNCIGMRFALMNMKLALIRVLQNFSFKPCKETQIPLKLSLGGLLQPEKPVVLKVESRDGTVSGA

SMILES: CCC[S+]([O-])c1ccc2[nH]c(NC(=O)OC)nc2c1 (centres unmarked) [Albendazole sulfoxide, albendazole sulfoxide]
- % Metabolized at 30 min Incubation with Human Liver Fractions/Enzymes Cytosol [1]: 0.20%
- % Inhibition of Control Activity CYP3A4 (substrate, testosterone) (CYP3A4 [2]): 4.82%
- increase of AUC ([3]; with transport inhibitors such as verapamil, quinidine and ivermectin): > 50%
- inhibition at 2 µM (CYP3A4 [4]): 2.48%
- inhibition at 2 µM (CYP3A4 [5]): < 0%
- inhibition at 10 µM (CYP3A4 [5]): < 0%
- % Metabolized at 30 min Incubation with Human Liver Fractions/Enzymes HLM [6]: 4.23%
- % Inhibition of Control Activity CYP1A2 (CYP1A2): 22.20%
- inhibition at 2 µM (CYP2C8): < 0%
- inhibition at 10 µM (CYP2C8): < 0%
- % Inhibition of Control Activity CYP2C9 (CYP2C9): 9.49%

SMILES: CCCSc1ccc2nc(NC(=O)OC)[nH]c2c1 [Albendazole, albendazole, reference compound]
- % Metabolized at 30 min Incubation with Human Liver Fractions/Enzymes Cytosol [1]: 0.00%
- increase of exposure ([3]; with CYP3A4 inhibitor grapefruit juice): 3.2 fold
- % Metabolized at 30 min Incubation with Human Liver Fractions/Enzymes HLM [6]: 50.06%
- inhibition at 2 µM (CYP2C8): < 0%
- inhibition at 10 µM (CYP2C8): < 0%
- % Inhibition of Control Activity CYP2C9 (CYP2C9): 12.40%
- % Inhibition of Control Activity CYP2C19 (CYP2C19): 4.20%
- % Metabolized at 30 min Incubation with Human Liver Fractions/Enzymes rCYP1A2 (rCYP1A2; [7]): 98.92%
- % Contribution of CYP Enzymes (fmCYP) in Metabolism, CYP1A2 (rCYP1A2; [8]): 74.79%
- Predicted Microsomal Clint, CYP1A2 (rCYP1A2; [8]): 78.510 µL/min/mg Protein
- rCYP Clint, CYP1A2 (rCYP1A2; [8]): 1.510 µL/min/pmol
- % Metabolized at 30 min Incubation with Human Liver Fractions/Enzymes rCYP2C8 (rCYP2C8; [7]): 2.43%
- % Contribution of CYP Enzymes (fmCYP) in Metabolism, CYP2C8 (rCYP2C8; [9]): 0.50%
- Predicted Microsomal Clint, CYP2C8 (rCYP2C8; [9]): 0.525 µL/min/mg Protein
- rCYP Clint, CYP2C8 (rCYP2C8; [9]): 0.008 µL/min/pmol
- % Metabolized at 30 min Incubation with Human Liver Fractions/Enzymes rCYP2C9 (rCYP2C9; [7]): 5.96%
- % Contribution of CYP Enzymes (fmCYP) in Metabolism, CYP2C9 (rCYP2C9; [10]): 1.87%
- Predicted Microsomal Clint, CYP2C9 (rCYP2C9; [10]): 1.966 µL/min/mg Protein
- rCYP Clint, CYP2C9 (rCYP2C9; [10]): 0.020 µL/min/pmol
- % Metabolized at 30 min Incubation with Human Liver Fractions/Enzymes rCYP2D6 (rCYP2D6; [7]): 64.92%
- % Contribution of CYP Enzymes (fmCYP) in Metabolism, CYP2D6 (rCYP2D6; [11]): 3.33%
- Predicted Microsomal Clint, CYP2D6 (rCYP2D6; [11]): 3.491 µL/min/mg Protein
- rCYP Clint, CYP2D6 (rCYP2D6; [11]): 0.349 µL/min/pmol
- % Metabolized at 30 min Incubation with Human Liver Fractions/Enzymes rCYP2C19 (rCYP2C19; [7]): 95.76%
- % Contribution of CYP Enzymes (fmCYP) in Metabolism, CYP2C19 (rCYP2C19; [12]): 19.06%
- Predicted Microsomal Clint, CYP2C19 (rCYP2C19; [12]): 20.011 µL/min/mg Protein
- rCYP Clint, CYP2C19 (rCYP2C19; [12]): 1.053 µL/min/pmol
